Paper PMC8580319, “Dual activities of ACC synthase: Novel clues regarding the molecular evolution of ACS genes” (Science Advances, 2021)

Tests used:
GmACS7-like = target: T1, GmACS7-like (Glycine max, UniProt I1K634); assay: pyruvate formation, […],4-dinitrophenylhydrazine, A520; type: biochemical; settings: Cβ-S lyase activity; 4 mM L-cystine, 100 μM PLP, 30°C
T1 construct: gene LOC100799562; recombinant, His or GST tag, from E. coli
T1 sequence (I1K634 1-440): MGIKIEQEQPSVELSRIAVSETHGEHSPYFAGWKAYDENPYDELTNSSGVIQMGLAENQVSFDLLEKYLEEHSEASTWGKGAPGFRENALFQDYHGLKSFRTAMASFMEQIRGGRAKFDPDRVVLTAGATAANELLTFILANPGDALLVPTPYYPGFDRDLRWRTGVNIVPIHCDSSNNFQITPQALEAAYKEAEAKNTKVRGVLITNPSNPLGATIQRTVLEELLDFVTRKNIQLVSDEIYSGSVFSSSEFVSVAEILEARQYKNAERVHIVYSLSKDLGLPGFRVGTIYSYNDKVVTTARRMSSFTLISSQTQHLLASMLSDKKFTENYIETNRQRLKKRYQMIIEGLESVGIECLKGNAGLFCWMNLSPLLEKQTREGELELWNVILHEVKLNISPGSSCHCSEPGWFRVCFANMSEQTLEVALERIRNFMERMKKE

MdACS1 = target: T2, MdACS1 (Malus domestica, UniProt P37821); assay: as above; type: biochemical; settings: Cβ-S lyase activity; 4 mM L-cystine, 100 μM PLP, 30°C
T2 construct: gene ACS-1; recombinant, His or GST tag, from E. coli
T2 sequence (P37821 1-473): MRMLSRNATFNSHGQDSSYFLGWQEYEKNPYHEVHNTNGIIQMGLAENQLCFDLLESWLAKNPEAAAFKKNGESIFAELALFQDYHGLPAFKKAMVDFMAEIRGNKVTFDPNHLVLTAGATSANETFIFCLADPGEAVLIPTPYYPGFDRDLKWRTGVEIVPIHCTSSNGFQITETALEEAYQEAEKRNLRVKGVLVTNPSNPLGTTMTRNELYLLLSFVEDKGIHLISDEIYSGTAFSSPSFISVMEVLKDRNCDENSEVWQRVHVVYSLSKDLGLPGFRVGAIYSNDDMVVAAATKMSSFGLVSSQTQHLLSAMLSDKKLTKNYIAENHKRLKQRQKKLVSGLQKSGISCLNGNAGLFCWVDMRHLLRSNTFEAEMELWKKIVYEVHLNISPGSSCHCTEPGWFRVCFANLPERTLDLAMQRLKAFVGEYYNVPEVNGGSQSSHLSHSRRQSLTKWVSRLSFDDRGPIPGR

Question: Which results are given for `N[C@@H](CSSC[C@H](N)C(=O)O)C(=O)O` [L-cystine]?
Answer: pyruvate formation, 2,4-dinitrophenylhydrazine, A520 (GmACS7-like): all of them had ACS and Cβ-S lyase dual enzymatic activities; pyruvate formation, 2,4-dinitrophenylhydrazine, A520 (MdACS1): MdACS1 indeed had both ACS and Cβ-S lyase activities in vitro
